Assay results: ChEMBL document CHEMBL1139918, “Novel series of substituted biphenylmethyl urea derivatives as MCH-R1 antagonists for the treatment of obesity” (Bioorg Med Chem, 2007)

Columns and labels:
[1] = target: T1, Melanin-concentrating hormone receptor 1 (Homo sapiens, UniProt Q99705); assay: Displacement of [3H]SNAP from human MCH1 receptor expressed in HEK cells; assay type: cell-based, HEK293
[2] = target: T1, Melanin-concentrating hormone receptor 1; conditions: HEK293
Description: Antagonist activity at human MCH1 receptor expressed in HEK cells after 45 mins by [35S]GTP-gamma-S binding assay
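For pKb in this document: antagonism measured by [35S]GTPγS binding in HEK cells carrying human MCH1 receptor, 45 min incubation.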

T1 sequence (Q99705 whole entry): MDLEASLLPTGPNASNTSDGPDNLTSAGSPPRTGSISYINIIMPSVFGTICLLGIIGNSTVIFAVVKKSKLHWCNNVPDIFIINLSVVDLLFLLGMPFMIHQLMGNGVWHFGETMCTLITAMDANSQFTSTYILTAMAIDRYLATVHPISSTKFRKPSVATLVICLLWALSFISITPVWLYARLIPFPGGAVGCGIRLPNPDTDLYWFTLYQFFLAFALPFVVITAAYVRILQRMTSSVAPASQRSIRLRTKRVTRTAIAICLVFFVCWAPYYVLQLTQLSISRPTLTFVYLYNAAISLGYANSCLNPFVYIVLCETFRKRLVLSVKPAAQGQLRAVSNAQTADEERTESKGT

Row | Ki ([1]; read-out: Ki) | pKb [2] | Ki ([1]; read-out: Log Ki (converted)) | Structure (SMILES)
1 | 1.46 µM | 6.36 | – | COc1ccc(-c2ccc(CNC(=O)NC3CCN(Cc4ccc(C)cc4)CC3)cc2)cc1
2 | 0.258 µM | – | – | Cc1ccc(CN2CCC(CCN(Cc3ccc(-c4ccccc4)cc3)C(=O)NC(C)C)CC2)cc1
3 | 6.05 µM | 5.43 | – | COc1ccccc1-c1ccc(CN(CC(=O)C(C)(C)O)C(=O)NC2CCN(Cc3ccc(C)cc3)CC2)cc1
4 | 0.215 µM | 6.14 | – | COc1ccccc1-c1ccc(CN(CCC2CCN(Cc3ccc(C)cc3)CC2)C(=O)NC(C)(C)COC(C)=O)cc1
5 | 0.769 µM | 5.41 | – | CCC(CO)(CO)NC(=O)N(CCC1CCN(Cc2ccc(C)cc2)CC1)Cc1ccc(-c2cccc(C#N)c2)cc1
6 | 0.204 µM | 7.06 | – | COc1ccc(-c2ccc(CN(CCC3CCN(Cc4ccc(C)cc4)CC3)C(=O)NC(C)(C)CO)cc2)cc1
7 | 0.595 µM | 6.19 | – | COc1ccc(-c2ccc(CN(CCC3CCN(Cc4ccc(C)cc4)CC3)C(=O)NC(C)(C)COC(C)=O)cc2)cc1
8 | 6.38 µM | 5.3 | – | Cc1ccc(CN2CCC(NC(=O)N(CC(=O)C(C)(C)O)Cc3ccc(-c4cccc(C#N)c4)cc3)CC2)cc1
9 | 0.149 µM | 6.54 | – | CCC(CO)(CO)NC(=O)N(CCC1CCN(Cc2ccc(C)cc2)CC1)Cc1ccc(-c2ccc(F)cc2)cc1
10 | 0.425 µM | 6.19 | – | COc1ccccc1-c1ccc(CNC(=O)NC2CCN(Cc3ccc(C)cc3)CC2)cc1
11 | 0.144 µM | 6.2 | – | Cc1ccc(CN2CCC(CCN(Cc3ccc(-c4ccccc4)cc3)C(=O)NC(C)(C)CO)CC2)cc1
12 | 1.2 µM | – | – | CCC(COC(C)=O)(COC(C)=O)NC(=O)N(CCC1CCN(Cc2ccc(C)cc2)CC1)Cc1ccc(-c2ccccc2OC)cc1
13 | 0.043 µM | 7.08 | – | Cc1ccc(CN2CCC(CCN(Cc3ccc(-c4cccc(C#N)c4)cc3)C(=O)NC(C)(C)CO)CC2)cc1
14 | 2.64 µM | 5.97 | 2.66 µM | Cc1ccc(CN2CCC(NC(=O)NCc3ccc(-c4ccccc4)cc3)CC2)cc1
15 | 0.167 µM | 6.65 | – | CCC(CO)(CO)NC(=O)N(CCC1CCN(Cc2ccc(C)cc2)CC1)Cc1ccc(-c2ccccc2OC)cc1
16 | – | < 5 | – | COc1ccccc1-c1ccc(CN(CCC2CCN(Cc3ccc(C)cc3)CC2)C(=O)NC(C)C)cc1
17 | 0.251 µM | 6.88 | – | COc1ccccc1-c1ccc(CN(CCC2CCN(Cc3ccc(C)cc3)CC2)C(=O)NC(C)(C)CO)cc1

Row | Ki ([1]; read-out: Ki) | pKb [2] | Ki ([1]; read-out: Log Ki (converted)) | Structure (SMILES)
18 | 0.214 µM | 6.71 | – | CCC(COC(C)=O)(COC(C)=O)NC(=O)N(CCC1CCN(Cc2ccc(C)cc2)CC1)Cc1ccc(-c2ccc(F)cc2)cc1
19 | 0.509 µM | 6 | – | Cc1ccc(CN2CCC(CCN(Cc3ccc(-c4cccc(C#N)c4)cc3)C(=O)NC(C)C)CC2)cc1
20 | 0.173 µM | 6.83 | – | CCC(CO)(CO)NC(=O)N(CCC1CCN(Cc2ccc(C)cc2)CC1)Cc1ccc(-c2ccccc2)cc1
21 | 5.86 µM | 5.34 | – | Cc1ccc(CN2CCC(NC(=O)N(CC(=O)C(C)(C)O)Cc3ccc(-c4ccc(F)cc4)cc3)CC2)cc1
22 | 0.254 µM | 6.63 | – | CC(=O)OCC(C)(C)NC(=O)N(CCC1CCN(Cc2ccc(C)cc2)CC1)Cc1ccc(-c2cccc(C#N)c2)cc1
23 | 0.388 µM | 6.58 | – | CCC(COC(C)=O)(COC(C)=O)NC(=O)N(CCC1CCN(Cc2ccc(C)cc2)CC1)Cc1ccc(-c2ccccc2)cc1
24 | 0.273 µM | 6.33 | – | COc1ccc(-c2ccc(CN(CCC3CCN(Cc4ccc(C)cc4)CC3)C(=O)NC(C)C)cc2)cc1
25 | 0.421 µM | 6.39 | – | CC(=O)OCC(C)(C)NC(=O)N(CCC1CCN(Cc2ccc(C)cc2)CC1)Cc1ccc(-c2ccc(F)cc2)cc1
26 | 0.545 µM | 6.71 | 0.543 µM | Cc1ccc(CN2CCC(NC(=O)NCc3ccc(-c4ccc(F)cc4)cc3)CC2)cc1
27 | 0.143 µM | 6.93 | – | CCC(CO)(CO)NC(=O)N(CCC1CCN(Cc2ccc(C)cc2)CC1)Cc1ccc(-c2ccc(OC)cc2)cc1
28 | 0.186 µM | 6.38 | – | Cc1ccc(CN2CCC(NC(=O)NCc3ccc(-c4cccc(C#N)c4)cc3)CC2)cc1
29 | 0.947 µM | 6.43 | – | CC(=O)OCC(C)(C)NC(=O)N(CCC1CCN(Cc2ccc(C)cc2)CC1)Cc1ccc(-c2ccccc2)cc1
30 | 0.17 µM | 6.86 | – | CCC(COC(C)=O)(COC(C)=O)NC(=O)N(CCC1CCN(Cc2ccc(C)cc2)CC1)Cc1ccc(-c2ccc(OC)cc2)cc1
31 | – | < 5 | – | COc1ccc(-c2ccc(CN(CC(=O)C(C)(C)O)C(=O)NC3CCN(Cc4ccc(C)cc4)CC3)cc2)cc1
32 | 1.08 µM | – | – | CCC(COC(C)=O)(COC(C)=O)NC(=O)N(CCC1CCN(Cc2ccc(C)cc2)CC1)Cc1ccc(-c2cccc(C#N)c2)cc1
33 | 0.0966 µM | 7.38 | – | Cc1ccc(CN2CCC(CCN(Cc3ccc(-c4ccc(F)cc4)cc3)C(=O)NC(C)(C)CO)CC2)cc1
34 | 0.314 µM | 6.42 | 0.313 µM | Cc1ccc(CN2CCC(CCN(Cc3ccc(-c4ccc(F)cc4)cc3)C(=O)NC(C)C)CC2)cc1
